Test results published in ChEMBL document CHEMBL4020729, “Synthesis and evaluation of anti-plasmodial and cytotoxic activities of epoxyazadiradione derivatives” (Eur J Med Chem, 2017).
Calls of active or inactive are those of the source. The calls are words filed in the database; no cut-off is given here.

Assays:
Plasmodium falciparum [1] = assay: Anti-plasmodial activity against chloroquine-sensitive Plasmodium falciparum 3D7 infected in human erythrocytes after 50 hrs by SYBR green dye based fluorescence assay; assay type: functional, cell-based; conditions: 3D7, 50 h
Plasmodium falciparum [2] = assay: Anti-plasmodial activity against chloroquine-resistant Plasmodium falciparum Dd2 infected in human erythrocytes after 50 hrs by SYBR green dye based fluorescence assay; assay type: functional, cell-based; conditions: Dd2, 50 h
SiHa = assay: Antiproliferative activity against human SiHa cells after 48 hrs by SRB assay; assay type: functional, cell-based
PANC-1 = assay: Antiproliferative activity against human PANC1 cells after 48 hrs by SRB assay; assay type: functional, cell-based; conditions: PANC-1, 48 h
MDA-MB-231 = assay: Antiproliferative activity against human MDA-MB-231 cells after 48 hrs by SRB assay; assay type: functional, cell-based; conditions: MDA-MB-231, 48 h
IMR-32 = assay: Antiproliferative activity against human IMR32 cells after 48 hrs by SRB assay; assay type: functional, cell-based; conditions: IMR-32, 48 h
Plasmodium berghei = assay: Anti-plasmodial activity against Plasmodium berghei ANKA infected in BALB/c mouse at 50 mg/kg, ip assessed as reduction in parasitemia administered once per day for 4 days by Giemsa staining based light microscopic assay; assay type: functional, organism-based

COc1cc(-n2cc(CO/N=C3/[C@H]4O[C@]45[C@@]4(C)[C@H](CC[C@@]5(C)[C@@H]3c3ccoc3)[C@@]3(C)C=CC(=O)C(C)(C)[C@@H]3C[C@H]4OC(C)=O)nn2)c(OC)cc1Cl
IC50 (Plasmodium falciparum [1]): 1.5 µM
IC50 (Plasmodium falciparum [2]): 1.2 µM
IC50 (SiHa): > 100 µM
IC50 (PANC-1): 35.1 µM
IC50 (MDA-MB-231): > 100 µM
IC50 (IMR-32): > 100 µM
Activity (Plasmodium berghei): inactive
